Test results reported in patent US11691949B2, “Quinoline sulfonamide compounds and their use as antibacterial agents” (OTAGO INNOVATION LIMITED, priority 2017, dated 2023).
Values after ≈ are worked out from the molar mass of the structure shown. Read-outs that look alike come from different tables or passages of the source.

What was measured:
Assay type in all cases: cell-based
[1] = tested on: S. uberis ATCC 19436; assay: MBC by Miles-Misra drop-plate method, S. uberis; settings: Streptococcus uberis
Procedure: (§1) Antibacterial susceptibility testing was performed in triplicate (biological) by measuring minimum inhibitory concentrations (MICs) by broth microdilution in 96-well flat bottom microtiter plates (ThermoFisher Scientific, New Zealand). S. uberis ATCC 19436, S. aureus ATCC 6538, or E. coli ATCC 10596 cells grown overnight were diluted to an OD600 of approximately 0.025, so that the final concentration of cells in the MIC assay was approximately 5×10^5 cfu/mL in media as follows: S. uberis; Todd Hewitt Broth (THB), S. aureus; Tryptic Soy Broth (TSB) and Cation Adjusted Muller Hinton Broth (CAMHB), and E. coli; Lysogeny Borth (LB) and CAMHB, before being dispensed into microtiter wells. As required additional sterile Zinc Sulphate (Heptahydrate) was supplemented into the media, so the final concentration was 50 μM. Test compounds were added to starting wells and two-fold serial dilutions were undertaken to generate a range of inhibitor concentrations at a final volume of 200 μl. Media and test compound-free (untreated) controls were included in each microtiter plate in triplicate. After 24 h incubation at 37° C. and 200 rpm, the OD600 of wells were read using a Varioskan Flash plate reader (ThermoFisher Scientific, New Zealand). The MIC was reported as the lowest concentration of the test compound for which no growth occurred, as determined by OD600 readings. The minimum bactericidal concentration (MBC) was determined using the Miles-Misra drop-plate method to measure the viability of cells in response to test compound challenge.

[2] = tested on: S. aureus ATCC 6538; assay: MIC by broth microdilution, S. aureus; settings: Staphylococcus aureus
How it was run: (§2)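 Overnight cultures diluted to ~5×10^5 cfu/mL final; S. aureus in TSB and CAMHB, E. coli in LB and CAMHB, zinc sulphate to 50 μM final as required; two-fold serial dilutions. MIC = lowest concentration with no growth by OD600 after 24 h, 37° C, 200 rpm. MBC by Miles-Misra drop-plate viability count.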

[3] = tested on: E. coli ATCC 10596; assay: MIC by broth microdilution, E. coli; settings: Escherichia coli
How it was run: as §2

[4] = tested on: S. uberis ATCC 19436; assay: MIC by broth microdilution, S. uberis; settings: Streptococcus uberis
How it was run: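 The MIC against S. uberis ATCC 19436 was the lowest compound concentration showing no growth by OD600 after 24 h at 37° C. with 200 rpm shaking. Cultures grown overnight were adjusted to OD600 ~0.025 so wells held approximately 5×10^5 cfu/mL in THB. Two-fold dilution series were made at a final volume of 200 μl. Media and untreated controls were run in triplicate on each plate.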

[5] = tested on: E. coli ATCC 10536; assay: MBC by Miles-Misra drop-plate method, E. coli; settings: Escherichia coli
Procedure: as §1

[6] = tested on: S. aureus ATCC 6538; assay: MBC by Miles-Misra drop-plate method, S. aureus; settings: Staphylococcus aureus
Procedure: as §1

[7] = ATCC19436, No Zinc, read-out: S. uberis ATCC 19436 MBC
[8] = ATCC19436, Zinc (50 μM), read-out: S. uberis ATCC 19436 MBC
[9] = ATCC6538, No Zinc, read-out: S. aureus ATCC 6538 MIC
[10] = ATCC6538, Zinc (50 μM), read-out: S. aureus ATCC 6538 MIC
[11] = ATCC 10536 / ATCC 10596, No Zinc, read-out: E. coli ATCC 10536 MIC
[12] = ATCC 10536 / ATCC 10596, Zinc (50 μM), read-out: E. coli ATCC 10536 MIC
[13] = ATCC19436, No Zinc, read-out: S. uberis ATCC 19436 MIC
[14] = ATCC19436, Zinc (50 μM), read-out: S. uberis ATCC 19436 MIC
[15] = ATCC10536, No Zinc, read-out: E. coli ATCC 10536 MBC
[16] = ATCC10536, Zinc (50 μM), read-out: E. coli ATCC 10536 MBC
[17] = ATCC6538, No Zinc, read-out: S. aureus ATCC 6538 MBC
[18] = ATCC6538, Zinc (50 μM), read-out: S. aureus ATCC 6538 MBC

Row | MIC [2, 9] [µg/mL] | MIC [2, 10] [µg/mL] | MIC [3, 11] [µg/mL] | MIC [3, 12] [µg/mL] | MIC [4, 13] [µg/mL] | MIC [4, 14] [µg/mL] | SMILES | MBC [1, 7] [µg/mL] | MBC [1, 8] [µg/mL] | MBC [5, 15] [µg/mL] | MBC [5, 16] [µg/mL] | MBC [6, 17] [µg/mL] | MBC [6, 18] [µg/mL] | further results
1 | 4 (≈ 10.1 µM) | 4 (≈ 10.1 µM) | > 256 | > 256 | 8 (≈ 20.2 µM) | 0.125 (≈ 0.316 µM) | O=S(=O)(Nc1cccc2ccc(/C=N/O)nc12)c1ccc(C(F)(F)F)cc1 [ZDR125, (E)-N-(2-((Hydroxyimino)methyl)quinolin-8-yl)-4-(trifluoromethyl)benzenesulfonamide] | 8 (≈ 20.2 µM) | 0.5 (≈ 1.26 µM) | > 256 | > 256 | > 256 | > 256 | –
2 | 16 (≈ 40.6 µM) | 16 (≈ 40.6 µM) | > 256 | > 256 | > 256 | 1 (≈ 2.54 µM) | N/N=C/c1ccc2cccc(NS(=O)(=O)c3ccc(C(F)(F)F)cc3)c2n1 [ZDR127, (E)-N-(2-(Hydrazineylidenemethyl)quinolin-8-yl)-4-(trifluoromethyl)benzenesulfonamide] | > 256 | 2 (≈ 5.07 µM) | > 256 | > 256 | > 256 | > 256 | –
3 | – | – | – | – | – | – | N=C(N)NCCNCc1ccc2cccc(NS(=O)(=O)c3ccc(C(F)(F)F)cc3)c2n1 [ZDR143, N-(2-(((2-Guanidinoethyl)amino)methyl)quinolin-8-yl)-4-(trifluoromethyl)benzenesulfonamide di-trifluoroacetate] | – | – | – | – | – | – | MBC ([1]; ATCC19436, read-out: S. uberis ATCC 19436 MBC, No Zinc): 8 µg/mL (≈ 17.1 µM); MBC ([1]; ATCC19436, read-out: S. uberis ATCC 19436 MBC, Zinc (50 μM)): 8 µg/mL (≈ 17.1 µM); MIC ([2]; ATCC6538, read-out: S. aureus ATCC 6538 MIC, No Zinc): 8 µg/mL (≈ 17.1 µM); MIC ([2]; ATCC6538, read-out: S. aureus ATCC 6538 MIC, Zinc (50 μM)): 8 µg/mL (≈ 17.1 µM); MIC ([3]; ATCC 10536 / ATCC 10596, read-out: E. coli ATCC 10536 MIC, No Zinc): 16 µg/mL (≈ 34.3 µM); MIC ([3]; ATCC 10536 / ATCC 10596, read-out: E. coli ATCC 10536 MIC, Zinc (50 μM)): 16 µg/mL (≈ 34.3 µM); MIC ([4]; ATCC19436, read-out: S. uberis ATCC 19436 MIC, No Zinc): 8 µg/mL (≈ 17.1 µM); MIC ([4]; ATCC19436, read-out: S. uberis ATCC 19436 MIC, Zinc (50 μM)): 4 µg/mL (≈ 8.57 µM); MBC ([5]; ATCC10536, read-out: E. coli ATCC 10536 MBC, No Zinc): 32 µg/mL (≈ 68.6 µM); MBC ([5]; ATCC10536, read-out: E. coli ATCC 10536 MBC, Zinc (50 μM)): 32 µg/mL (≈ 68.6 µM); MBC ([6]; ATCC6538, read-out: S. aureus ATCC 6538 MBC, No Zinc): 16 µg/mL (≈ 34.3 µM); MBC ([6]; ATCC6538, read-out: S. aureus ATCC 6538 MBC, Zinc (50 μM)): 16 µg/mL (≈ 34.3 µM)
4 | 2 (≈ 3.69 µM) | 2 (≈ 3.69 µM) | > 256 | > 256 | 2 (≈ 3.69 µM) | 0.5 (≈ 0.922 µM) | O=S(=O)(Nc1cccc2ccc(CNc3cc(Cl)cc(Cl)c3O)nc12)c1ccc(C(F)(F)F)cc1 [ZDR167, N-(2-(((3,5-Dichloro-2-hydroxyphenyl)amino)methyl)quinolin-8-yl)-4-(trifluoromethyl)benzenesulfonamide] | 8 (≈ 14.8 µM) | 0.5 (≈ 0.922 µM) | > 256 | > 256 | 8 (≈ 14.8 µM) | 8 (≈ 14.8 µM) | –
5 | 8 (≈ 15.4 µM) | 4 (≈ 7.71 µM) | 256 (≈ 494 µM) | 256 (≈ 494 µM) | 8 (≈ 15.4 µM) | 1 (≈ 1.93 µM) | O=[N+]([O-])c1ccc(O)c(NCc2ccc3cccc(NS(=O)(=O)c4ccc(C(F)(F)F)cc4)c3n2)c1 [ZDR170, N-(2-(((2-Hydroxy-5-nitrophenyl)amino)methyl)quinolin-8-yl)-4-(trifluoromethyl)benzenesulfonamide] | 16 (≈ 30.9 µM) | 2 (≈ 3.86 µM) | > 256 | > 256 | 128 (≈ 247 µM) | 128 (≈ 247 µM) | –
6 | 4 (≈ 8.45 µM) | 4 (≈ 8.45 µM) | > 256 | > 256 | 8 (≈ 16.9 µM) | 0.5 (≈ 1.06 µM) | O=S(=O)(Nc1cccc2ccc(CNc3ccccc3O)nc12)c1ccc(C(F)(F)F)cc1 [ZDR171, N-(2-(((2-Hydroxyphenyl)amino)methyl)quinolin-8-yl)-4-(trifluoromethyl)benzenesulfonamide] | 8 (≈ 16.9 µM) | 0.5 (≈ 1.06 µM) | > 256 | > 256 | 16 (≈ 33.8 µM) | 32 (≈ 67.6 µM) | –
